Results reported in patent publication US7196105B2, “Treatment of human multiple myeloma by curcumin” (Research Development Foundation, priority 2002, dated 2007).

Key:
[1] = system: caspase-9; assay: Western blot for procaspase-9 (apoptosis); assay type: cell-based, human; conditions: U266, curcumin 50 μM, time course
Method: The cells were washed and total proteins were extracted by lysing the cells. Sixty microgram of extracts were resolved on 10% SDS-PAGE gel, electrotransferred to a nitrocellulose membrane, and probed with anti-procaspase-9 (FIG. 6C), anti-procaspase-7 (FIG. 6D), anti-PARP (FIG. 6E, upper panel) and anti-cleaved PARP (FIG. 6E, lower penal). […] Lysates were then spun at 14000 rpm for 10 min to remove insoluble material, resolved on 7.5% gel and probed with PARP antibodies. PARP was cleaved from the 116-kDa intact protein into 85-kDa and 40-kDa peptide products. To detect cleavage products of procaspase 7 and procaspase 9, whole cell extracts were resolved on 10% gel and probed with appropriate antibodies.

[2] = system: MM.1R; assay: Growth of cells, viable cell count by trypan blue dye exclusion; assay type: cell-based; conditions: Homo sapiens, curcumin 1 μM
Excerpt: (§1) The results are shown as the mean (±s. d.) cell count from triplicate cultures.

[3] = system: MM.1; assay: as above; assay type: cell-based; conditions: Homo sapiens, Mm1; MM.1, curcumin 1 μM
Excerpt: as §1

[4] = system: RPMI 8226; assay: as above; assay type: cell-based; conditions: Homo sapiens; RPMI 8226, curcumin 1 μM
Excerpt: as §1

[5] = system: U266; assay: as above; assay type: cell-based; conditions: Homo sapiens, U-266; U266, curcumin 1 μM
Excerpt: as §1

[6] = biological target: T1, IκB kinase (Homo sapiens, UniProt O14920+O15111); assay: In vitro kinase assay: IKK immunoprecipitated from untreated U266 cells, then treated with curcumin; assay type: biochemical; conditions: curcumin 30 min, GST-IκBα substrate
T1 construct: 200 μg cytoplasmic extracts were immunoprecipitated with 1 μg of anti-IKKa and IKKb antibodies each; endogenous in cells; host or cells: U266 human multiple myeloma cells (cytoplasmic extract, immunoprecipitate on protein A/G-Sepharose)
T1 sequence (O15111 whole entry): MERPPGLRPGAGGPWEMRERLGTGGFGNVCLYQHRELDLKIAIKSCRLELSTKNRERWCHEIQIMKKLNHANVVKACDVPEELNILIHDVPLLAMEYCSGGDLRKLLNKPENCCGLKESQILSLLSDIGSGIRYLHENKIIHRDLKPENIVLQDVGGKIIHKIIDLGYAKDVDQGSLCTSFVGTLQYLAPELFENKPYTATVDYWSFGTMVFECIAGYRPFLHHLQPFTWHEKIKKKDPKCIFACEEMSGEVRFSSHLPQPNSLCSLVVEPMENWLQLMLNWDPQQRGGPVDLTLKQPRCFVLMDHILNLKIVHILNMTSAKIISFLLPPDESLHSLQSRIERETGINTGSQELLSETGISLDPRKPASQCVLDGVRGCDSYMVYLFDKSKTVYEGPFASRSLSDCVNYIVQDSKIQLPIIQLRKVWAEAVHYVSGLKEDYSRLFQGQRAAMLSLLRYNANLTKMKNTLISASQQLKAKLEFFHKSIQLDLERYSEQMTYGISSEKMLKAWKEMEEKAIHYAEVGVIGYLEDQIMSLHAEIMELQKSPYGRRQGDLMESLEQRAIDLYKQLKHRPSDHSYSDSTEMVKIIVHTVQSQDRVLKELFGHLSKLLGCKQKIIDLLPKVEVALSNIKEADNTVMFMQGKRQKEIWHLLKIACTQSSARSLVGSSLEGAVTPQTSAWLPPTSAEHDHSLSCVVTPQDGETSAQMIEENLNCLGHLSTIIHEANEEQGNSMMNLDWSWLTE
T1 sequence (O14920 whole entry): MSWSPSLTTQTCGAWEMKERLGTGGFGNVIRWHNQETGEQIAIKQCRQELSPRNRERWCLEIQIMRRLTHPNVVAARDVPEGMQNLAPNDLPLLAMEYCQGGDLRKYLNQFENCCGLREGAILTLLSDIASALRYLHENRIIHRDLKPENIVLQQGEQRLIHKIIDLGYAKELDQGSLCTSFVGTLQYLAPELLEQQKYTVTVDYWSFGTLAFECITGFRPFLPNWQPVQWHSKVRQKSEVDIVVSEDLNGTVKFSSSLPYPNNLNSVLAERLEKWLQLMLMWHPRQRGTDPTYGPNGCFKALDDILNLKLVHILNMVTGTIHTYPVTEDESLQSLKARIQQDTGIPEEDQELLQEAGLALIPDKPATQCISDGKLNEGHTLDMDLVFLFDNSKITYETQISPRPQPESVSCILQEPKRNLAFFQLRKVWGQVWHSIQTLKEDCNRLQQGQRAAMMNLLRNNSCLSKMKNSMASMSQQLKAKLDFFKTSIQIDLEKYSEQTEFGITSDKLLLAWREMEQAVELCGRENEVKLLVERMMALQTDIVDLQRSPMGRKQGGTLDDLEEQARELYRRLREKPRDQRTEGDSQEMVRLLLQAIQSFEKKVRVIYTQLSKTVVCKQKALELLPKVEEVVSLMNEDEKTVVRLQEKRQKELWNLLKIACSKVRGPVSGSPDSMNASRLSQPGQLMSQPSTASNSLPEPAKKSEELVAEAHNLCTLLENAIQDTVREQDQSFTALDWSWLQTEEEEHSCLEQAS
T1 sequence (Q9Y6K9 whole entry partner): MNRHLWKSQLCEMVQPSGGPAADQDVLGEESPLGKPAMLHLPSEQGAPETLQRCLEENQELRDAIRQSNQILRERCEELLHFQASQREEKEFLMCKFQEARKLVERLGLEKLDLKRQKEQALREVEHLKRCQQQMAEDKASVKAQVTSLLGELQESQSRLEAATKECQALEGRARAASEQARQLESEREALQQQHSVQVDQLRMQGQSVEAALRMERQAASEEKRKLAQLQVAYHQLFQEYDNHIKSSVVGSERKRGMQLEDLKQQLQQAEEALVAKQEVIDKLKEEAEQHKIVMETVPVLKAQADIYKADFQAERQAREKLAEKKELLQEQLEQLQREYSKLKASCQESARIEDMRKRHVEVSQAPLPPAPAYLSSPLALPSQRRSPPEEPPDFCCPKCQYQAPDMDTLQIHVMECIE
Method: Five million U266 cells/2.5 ml were treated with curcumin (50 μM) for the indicated times and cytoplasmic extracts were prepared. FIG. 3A: Level of phosphorylated IκBα determined by Western blotting. FIG. 3B: Immunoprecipitated IκB kinase and kinase assay of IκB kinase activity (upper panel) or Western blotting for the analysis of total IKKα and IKKβ proteins in cytoplasmic extracts (lower panel). FIG. 3C: IκB kinase was immunoprecipitated and kinase assay was performed in the absence or presence of the indicated concentrations of curcumin (upper panel). Lower panel indicates the amount of GST-IκBα protein stained with Coomassie Blue in each well in the same dried gel.
The IkB kinase assay was performed with a modified method as described earlier (Manna et al., 2000). Briefly, 200 μg cytoplasmic extracts were immunoprecipitated with 1 μg of anti-IKKa and IKKb antibodies each, and the immune complexes so formed were precipitated with 0.01 ml of protein A/G-Sepharose beads for 2 hour. The beads were washed first with lysis buffer and then with kinase assay buffer (50 mM HEPES pH 7.4, 20 mM MgCl2, and 2 mM DTT). The immune complex was then assayed for kinase activity using kinase assay buffer containing […] [g-P^32]ATP, 10 μM unlabeled ATP, and 2 μg/sample glutathione S-transferase-IkBa (1–54). […] Radioactive bands of the dried gel were visualized and quantitated by PhosphorImager. […]

[7] = system: Bcl-2; assay: Western blot for NF-κB-regulated gene product Bcl-2 in U266 cells; assay type: cell-based, human; conditions: curcumin 50 μM
Method: (§2) Sixty micrograms of cytoplasmic extracts were resolved on 10% SDS-PAGE gel, electrotransferred on a nitrocellulose membrane, and probed for the following: IκBα (FIG. 4A); Bcl-2 (FIG. 4B); Bcl-xL (FIG. 4C) and cyclin D1 (FIG. 4D). The same blots were stripped and reprobed with anti-β-actin antibody to show equal protein loading (lower panel in each figure). FIG. 4E: […] U266, MM.1 or RPMI 8226 cells (1×10^7) were treated with curcumin ([…]) in 5 ml of medium for the indicated times. Supernatants were harvested and concentrated approximately 20×, and IL-6 was quantitated by an IL-6 ELISA kit. Values shown were normalized to 1 ml of un-concentrated supernatants. Thirty to fifty micrograms of cytoplasmic protein extracts prepared as described (Chaturvedi et al., 2000) were resolved on 10% SDS-PAGE gel. After electrophoresis, the proteins were electrotransferred to a nitrocellulose membrane, blocked with 5% nonfat milk, and probed with antibodies against either IkBa, phospho-IkBa, Bcl-2, Bcl-xL, or cyclin D1 (1:3000) for 1 h. Thereafter, the blot was washed, exposed to HRP-conjugated secondary antibodies for 1 h, and finally detected by chemiluminescence (ECL, Amersham Pharmacia Biotech., Arlington Heights, Ill.).

[8] = system: IκBα phosphorylation; assay: Western blot for phosphorylated IκBα in U266 cells; assay type: cell-based, human; conditions: curcumin 50 μM, time course
Method: FIG. 3A: Level of phosphorylated IκBα determined by Western blotting. FIG. 3B: Immunoprecipitated IκB kinase and kinase assay of IκB kinase activity (upper panel) or Western blotting for the analysis of total IKKα and IKKβ proteins in cytoplasmic extracts (lower panel). FIG. 3C: IκB kinase was immunoprecipitated and kinase assay was performed in the absence or presence of the indicated concentrations of curcumin (upper panel). Lower panel indicates the amount of GST-IκBα protein stained with Coomassie Blue in each well in the same dried gel. Thirty to fifty micrograms of cytoplasmic protein extracts prepared as described (Chaturvedi et al., 2000) were resolved on 10% SDS-PAGE gel. After electrophoresis, the proteins were electrotransferred to a nitrocellulose membrane, blocked with 5% nonfat milk, and probed with antibodies against either IkBa, phospho-IkBa, Bcl-2, Bcl-xL, or cyclin D1 (1:3000) for 1 h. Thereafter, the blot was washed, exposed to HRP-conjugated secondary antibodies for 1 h, and finally detected by chemiluminescence (ECL, Amersham Pharmacia Biotech., Arlington Heights, Ill.).

[9] = system: cyclin D1; assay: Western blot for NF-κB-regulated gene product cyclin D1 in U266 cells; assay type: cell-based, human; conditions: curcumin 50 μM
Method: as §2

With `COc1cc(/C=C/C(=O)CC(=O)/C=C/c2ccc(O)c(OC)c2)ccc1O` [curcumin, diferuloylmethane] the “activation of caspase-9 (disappearance of 47-kDa band)” value [1] was “time-dependent activation”, the inhibition at 1 µM [2] was 51% and the inhibition at 1 µM [3] was 45%. For the same molecule, the inhibition at 1 µM [4] was 23%, the inhibition at 1 µM [5] was 27% and the “direct inhibition of IκB kinase activity” value [6] was “inhibited IκB kinase activity directly in a dose-dependent manner”. For the same molecule, the “time to lowest level (complete decline) of Bcl-2” value [7] was no more than 8 h, the “phosphorylated IκBα content” value [8] was “decreased rapidly” and the “time to complete depletion of cyclin D1” value [9] was no more than 4 h.
